According to PMC7663597, “Structure–Activity Relationship of Aloperine Derivatives as New Anti–Liver Fibrogenic Agents” (Molecules, 2020):

Experiments:
COL1A1 promotor = COL1A1 promotor luciferase reporter gene assay in TGF-β1-treated LX-2 cells; type: cell-based, human; settings: Homo sapiens; for inhibition at 40 µM / inhibition at 80 µM: LX-2, 24 h; for inhibition at 40 µM: 24 h with TGF-β1, read-out: Inhibition Percentage 40 μM (inhibition rate of COL1A1 promotor's activity); for inhibition at 80 µM: 24 h with TGF-β1, read-out: Inhibition Percentage 80 μM (inhibition rate of COL1A1 promotor's activity); for IC50: read-out: IC50 (concentration required to inhibit 50% of COL1A1 promotor's activity)
Procedure: A single luciferase reporter gene detection model was applied to evaluate the inhibitory effects of all target compounds on the expression of COL1A1 promotor in human hepatic stellate LX-2 cells at the concentrations of 40 and 80 μM, taking EGCG as the positive control. The LX-2 cell lines were transfected with COL1A1 promotor luciferase plasmid pGL4.17-COL1A1P for 24 h, then simultaneously treated with TGF-β1 and a tested compound for 24 h.
(§1) Cells were maintained on Dulbecco’s Modified Eagle’s medium (DMEM), laid on 96-well plate. DMEM medium was supplemented with 10% fetal bovine serum (FBS) at 37 °C humidified atmosphere with 5% CO2. Furthermore, serum-free culture was required until the cells were confluent at 90−95%. 24 h later the cells were treated with a tested compound (40 and 80 μM) for 24 h. The COL1A1 promotor activity was detected by the Bright-Glo luciferase assay system. Alternatively, to test the acute effects of compound on luciferase activity, 24 h later the cells were lysed and the lysate was treated with a tested compound (80 μM) for 2 h, then the luciferase was detected by the Bright-Glo luciferase assay system (Promega, Madison, WI, USA).

luciferase = target: T1, luciferase (Photinus pyralis, UniProt P08659, K549A/L550V/N119G/N50D/S548I); test: Acute effect on luciferase activity (cell lysate, 2 h); type: biochemical; settings: 80 μM, 2-h treatment
T1 construct: expressed in transfected cells; host or cells: human hepatic stellate LX-2 cells transfected with pGL4.17-COL1A1P; lysate used
T1 sequence (P08659 whole entry N50D/N119G/S548I/K549A/L550V): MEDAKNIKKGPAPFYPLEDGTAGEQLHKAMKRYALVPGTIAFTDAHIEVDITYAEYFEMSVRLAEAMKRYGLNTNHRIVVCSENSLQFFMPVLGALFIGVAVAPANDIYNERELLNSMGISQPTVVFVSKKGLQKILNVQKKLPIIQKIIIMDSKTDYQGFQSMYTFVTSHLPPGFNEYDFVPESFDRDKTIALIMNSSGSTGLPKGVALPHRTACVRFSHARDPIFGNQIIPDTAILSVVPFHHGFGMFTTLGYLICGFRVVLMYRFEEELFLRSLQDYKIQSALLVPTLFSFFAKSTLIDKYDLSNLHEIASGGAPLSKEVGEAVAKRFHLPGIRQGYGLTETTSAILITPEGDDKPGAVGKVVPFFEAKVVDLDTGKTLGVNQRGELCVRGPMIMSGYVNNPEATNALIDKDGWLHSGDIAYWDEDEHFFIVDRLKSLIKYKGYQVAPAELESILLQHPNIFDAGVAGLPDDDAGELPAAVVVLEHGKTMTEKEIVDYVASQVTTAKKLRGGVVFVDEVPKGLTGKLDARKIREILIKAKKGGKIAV
Procedure: Then, their anti-COL1A1 potencies were verified by testing the half maximal inhibition concentration (IC50) values upon COL1A1 expression expression in LX-2 cells. […] Then, compounds 4i, 4n and 4p with the lower IC50 values were selected as the key compounds for further studies.
as §1

[1] = LX-2 cell survival, sulforhodamine B (SRB) assay; type: cell-based; settings: human, LX-2 cells
Procedure: LX-2 cell survival was measured by sulforhodamine B (SRB) assay. The cells were seeded in 96-well plates at the density of 2 × 10^4/well and cultured in DMEM/GlutaMAX I medium with 10% fetal bovine serum (FBS) with 5% CO2, 37 °C. The cells were treated by the aloperine derivates for 24 h, washed by PBS for three times. Then the cells were fixed with 10% (wt/vol) trichloroacetic acid for 1 h and stained with SRB for 0.5 h. Subsequently, the protein-bound dye was dissolved in 10 mM Tris base solution after removing excess SRB dye washing repeatedly with 1% (vol/vol) acetic acid, the optical density (OD) was determined at 510 nm with a microplate reader.

[2] = HepG2 cell survival, MTT assay; type: cell-based; settings: human, HepG2 cells
Procedure: HepG2 cell survival was measured by MTT assay. HepG2 cells, at density of 6x10^3 cells/well in 96-well culture plates, were incubated with the aloperine derivates at various concentrations until the cells at 50% confluence for 24 h. 20 µL of the MTT (5 mg/mL) solution was added to each plate and incubated with 5% CO2, 37 °C for 4 h. Subsequently, withdrawing the culture supernatant containing MTT, 150 µL DMSO was used for dissolving the formazan crystal. The absorbance was measured using a microplate reader at 570 nm.

COL1A1 mRNA = test: RT-PCR of COL1A1 mRNA in LX-2 cells; type: cell-based, human; settings: 24 h
Procedure: (§2) In the absence or presence of TGF-β1 (2 ng/mL) treatment, LX-2 cells were treated with key compounds 4n and 4p at concentrations of 6 μM and 12 μM, or 4i at a concentration of 12 μM, respectively.
LX-2 cells were laid on 6-well plate and cultured in DMEM supplemented with 10% fetal bovine serum (FBS) in a 5% CO2 atmosphere at 37 °C. And serum-free culture was required until the cells reached 90−95% confluence. […] Total RNA of the LX-2 cells was isolated using TRIzol reagent, purified using NucleoSpin RNA Clean-up. Reverse transcription was performed with Transcriptor first strand cDNA synthesis kit. Subsequently, the cDNA levels was determined by ABI 7500 Fast Real-Time PCR System using TaqMan probes of COL1A1, TGF-β1, α-SMA, and GAPDH (sequence not disclosed by ABI) and FastStart Universal Probe master mix (Roche, Indianapolis, IN, USA).

TGFB1 mRNA = test: RT-PCR of TGFB1 mRNA in LX-2 cells; type: cell-based, human; settings: TGF-β1 (2 ng/mL) stimulation, 12 μM, 24 h
Procedure: as §2
Since the stimulation of TGF-β1 provokes the expression of a series of fibrosis genes, for example COL1A1 and TGFB1 [24, 25], the effects of key compounds on TGF-β1 expression were evaluated by RT-PCR and western blot assays. As shown in Figure 2B and Supplementary Table S1, the expression of TGFB1 mRNA was maintained at a low level, and the addition of a key compound seemed to have little effect on its expression.
LX-2 cells were laid on 6-well plate and cultured in DMEM supplemented with 10% fetal bovine serum (FBS) in a 5% CO2 atmosphere at 37 °C. And serum-free culture was required until the cells reached 90−95% confluence. After 24 h, cells were incubated with […] concentrations of aloperine derivatives in the presence of 2 ng/mL of TGF-β1 for 24 h. Total RNA of the LX-2 cells was isolated using TRIzol reagent, purified using NucleoSpin RNA Clean-up. Reverse transcription was performed with Transcriptor first strand cDNA synthesis kit. Subsequently, the cDNA levels was determined by ABI 7500 Fast Real-Time PCR System using TaqMan probes of COL1A1, TGF-β1, α-SMA, and GAPDH (sequence not disclosed by ABI) and FastStart Universal Probe master mix (Roche, Indianapolis, IN, USA).

in vivo = settings: both sexes, Kunming, mouse, po
Procedure: To evaluate the safety profiles of the key compounds 4i, 4n and 4p, an acute toxicity test was performed in Kunming mice. Compound 4i was given orally in a single-dosing experiment at 100, 300 and 400 mg kg^−1, while 4n at 300, 400, 500 mg kg^−1, and 4p at 200, 400, 500 mg kg^−1. The mice were closely monitored for 7 days.
Male and Female Kunming mice with weight of 20.0 ±1.0 g were obtained from the Institute of Laboratory Animal Science (Beijing, China). Animals wer e cared according to the institutional guidelines of the Institute of Medicinal Biotechnology, CAMS&PUMC (IMB-20190610D3), and fed with regular rodent chow and housed in an air conditioned room. The mice were randomly divided into different groups with four male mice and four female mice each. Each compound was given orally in a single-dosing experiment, the dose of 4i was 100, 300 and 400 mg kg^−1, the dose of 4n was 300, 400, 500 mg kg^−1, the dose of 4p was 200, 400, 500 mg kg^−1 (ddH2O as control). The mice were closely monitored for 7 days. Body weight as well as survival was monitored.

Row | Compound | inhibition at 40 µM (COL1A1 promotor) | inhibition at 80 µM (COL1A1 promotor) | IC50 (COL1A1 promotor) | Acute effect on luciferase activity (luciferase) | CC50 at 24 h [1] | CC50 at 24 h [2] | melting point | Inhibitory rate of COL1A1 transcription (mRNA) (COL1A1 mRNA; TGF-β1 (2 ng/mL) stimulation, 12 μM) | Inhibitory rate of COL1A1 transcription (mRNA) (COL1A1 mRNA; absence of TGF-β1, 12 μM) | Inhibitory rate of TGFB1 mRNA expression (TGFB1 mRNA) | LD50 at 7 days (in vivo)
1 | O=C(CNS(=O)(=O)c1cc(C(F)(F)F)cc(C(F)(F)F)c1)N1CCCC2=C[C@H]3C[C@H](CN4CCCC[C@H]34)[C@@H]21 [10g, 12N-N′-(3,5-Ditrifluoromethyl)benzenesulfonylaminoacetyl aloperine] | 48.4 ± 24.7% | 84 ± 0.5% | 27.6 ± 3 µM | minimal inhibition | 68.6 ± 11.7 µM | 113 ± 3.4 µM | 78 to 80 °C |  |  |  | 
2 | O=C(CN1CCCC2=C[C@H]3C[C@H](CN4CCCC[C@H]34)[C@@H]21)Nc1cc(Cl)cc(OC(F)(F)F)c1 [4i, 12N-N′-(3-Chloro-5-trifluoromethoxyphenyl)carbamoylmethyl aloperine] | 99.9% | 99.9% | 8.4 ± 0.3 µM | minimal inhibition | 19.5 ± 1.8 µM | 22 ± 4.6 µM |  | 97.4% | 45% | 75.4% | 100 mg/kg
